Data on 27 substances can be found in paper PMC7367873, “Dissecting the sequence determinants for dephosphorylation by the catalytic subunits of phosphatases PP1 and PP2A” (Nature Communications, 2020).

The subject of assay [1] is GFP-14-3-3β and its binding proteins. As to the kind of experiment: GFP-14-3-3β co-IP with LC-MS/MS label-free quantification, untreated versus PP1c-treated. Further details: species or system human. Here is the method:
(§1) HeLa Kyoto cells expressing transiently transfected pEGFP(C1)-14-3-3β or pEGFP(C1) control plasmid, were incubated with 20 nM Calyculin A (# 9902 S, Cell Signaling Technology) for 12 min. Cells were washed twice on ice with cold PBS and after addition of 500 µL lysis buffer (100 mM NaCl, 10 mM Tris, 0.1% IGEPAL, 1 mM EDTA, 1 mM EGTA, 20 nM Calyculin A, 1x cOmplete Mini protease inhibitor cocktail (Sigma), 1 mM DTT, 1 mM MnCl2) cells were scraped from plates, lysed by 10 pushes through an injection needle (21 G, BD) and the insoluble fraction was pelleted by centrifugation (10 min, 10^4 rcf, 4 °C). Supernatants were then subjected to incubation with 1 µM recombinant phosphatase or buffer for 1 h at 30 °C. Next, we subjected samples to immunoprecipitation using α-GFP nanobodies covalently coupled to agarose beads (2 h, 4 °C, obtained from the EMBL PEPcore Core Facility). Beads were then washed three times with lysis buffer and samples were eluted in 1x LDS sample buffer (Thermo Fisher Scientific) by heating to 70 °C for 10 min.
(§2) The samples were then reduced with 25 mM dithiothreitol (10 min at 70 °C) and alkylated with 55 mM chloroacetamide (room temperature, 30 min, in the dark). Proteins were run on a precast 4–12% NuPAGE gel (ThermoFisher Scientific) for about 1 cm to concentrate the sample prior to in-gel tryptic digestion, which was performed according to the standard procedures. The peptides obtained were dried to completeness and resuspended in 12 µL of buffer A (0.1% FA), and 5 µL of sample were injected per MS measurement. The experiment was carried out in three independent replicates.
(§3) The samples were analyzed by LC-MS/MS on a Dionex Ultimate 3000 nano-HPLC coupled online to a Fusion Lumos Tribrid mass spectrometer (Thermo Fisher Scientific). Peptides were delivered to a trap column (75 µm × 2 cm, packed in-house with 5 µm C18 resin; Reprosil PUR AQ, Dr. Maisch) and washed using 0.1% FA at a flow rate of 5 µL/min for 10 min. Subsequently, peptides were transferred to an analytical column (75 µm × 45 cm, packed in-house with 3 µm C18 resin; Reprosil Gold) applying a flow rate of 300 nL/min and separated using a 60 min linear gradient from 4% to 32% LC solvent B (0.1% FA, 5% DMSO in ACN) in LC solvent A (0.1% FA in 5% DMSO). The eluate from the analytical column was sprayed via a stainless steel emitter (Thermo Fisher Scientific) at a source voltage of 2.1 kV into the mass spectrometer. The transfer capillary was heated to 275 °C. The Fusion Lumos was operated in positive ionization mode and data-dependent acquisition (DDA), automatically switching between MS1 and MS2 spectrum acquisition. Full scan MS1 spectra were recorded in the Orbitrap from 360 to 1300 m/z at a resolution of 60k (automatic gain control (AGC) target value of 4e5 charges, maximum injection time (maxIT) of 50 ms). Up to 20 peptide precursors were isolated (isolation window, 1.7 m/z; maximum injection time, 25 ms; and AGC value, 1e5), fragmented by high-energy collision-induced dissociation (HCD) using 30% normalized collision energy (NCE), and analyzed at a resolution of 15k in the Orbitrap. Precursor ions that were singly charged, unassigned, or with charge states >6+ were excluded. The dynamic exclusion duration of fragmented precursor ions was 20 s.
(§4) Peptide and protein identification and LFQ were performed using MaxQuant software (version 1.6.1.0)[64] by searching the data against all canonical protein sequences as annotated in the Swissprot reference database (human proteins only, 20193 entries, downloaded 22 March 2016, internally annotated with PFAM domains) using the embedded search engine Andromeda[65]. The MaxQuant search was performed using two variable modifications; oxidation of methionine and N-terminal protein acetylation. Carbamidomethylation on cysteines was specified as a fixed modification. Trypsin (Trypsin/P) was specified as the proteolytic enzyme with up to two allowed missed cleavage sites.

A further assay has as its system GFP-14-3-3β. Description: GFP-14-3-3β co-IP with LC-MS/MS, untreated GFP-14-3-3β versus GFP control (14-3-3 interactome). It counts as binding, human. On the procedure:
as §1, §2, §3, §4

Where [2] appears, read: PP1 vs untreated, LFQ intensities, 3 replicates each.
The mark [3] stands for this setting: untreated vs GFP, LFQ intensities, 3 replicates each.
Setting [4] is: PP1 vs untreated, label-free quantification.
Setting [5] is: untreated vs GFP, label-free quantification.
The mark [6] stands for this setting: GFP-14-3-3β co-IP LC-MS/MS, PP1 vs untreated, student's t-test, label-free quantification, 3 replicates each.
Where [7] appears, read: GFP-14-3-3β co-IP LC-MS/MS, untreated vs GFP, student's t-test, label-free quantification, 3 replicates each.
Where [8] appears, read: pairwise comparison PP1 vs untreated.
Setting [9] is: pairwise comparison untreated vs GFP.
Setting [10] is: pairwise comparison PP1 vs untreated, student's t-test, 3 replicates each, LC-MS/MS label-free quantification.
Setting [11] is: pairwise comparison untreated GFP-14-3-3β vs GFP, student's t-test, 3 replicates each, LC-MS/MS label-free quantification.
Setting [12] is: PP1 vs untreated, LFQ intensities, replicates 1-3.
Where [13] appears, read: untreated vs GFP, LFQ intensities, replicates 1-3.

For the substance ABCF1, the “Difference (log2), PP1 vs untreated” value in assay [1] (setting [2]) turned out to be 0.4338 log2. Also, the “Difference (log2), untreated vs GFP” value with GFP-14-3-3β (setting [3]) was 1.553 log2.
On to AGO2, for which, in assay [1] (setting [4]), the “Difference (log2), PP1 vs untreated” value was 0.7956 log2. The “Difference (log2), untreated vs GFP” value with GFP-14-3-3β (setting [5]) amounted to 0.05278 log2.
AHNAK: the “Difference (log2), PP1 vs untreated” value in assay [1] (setting [6]) is recorded as -0.4038 log2. Further, in the assay with GFP-14-3-3β (setting [7]), the “Difference (log2), untreated vs GFP” value is -1.21 log2.
For the substance AKAP13, the “Difference (log2), PP1 vs untreated” value in assay [1] (setting [6]) was -0.6453 log2. For the same substance, the “Difference (log2), untreated vs GFP” value with GFP-14-3-3β (setting [7]) is given as 1.366 log2.
Turning to ANXA2;ANXA2P2, the “Difference (log2), PP1 vs untreated” value in assay [1] (setting [8]) was determined as 0.07284 log2. Further, in the assay with GFP-14-3-3β (setting [9]), the “Difference (log2), untreated vs GFP” value was -0.03703 log2.
Taken in the same sequence, the figures for APC were 0.0453 log2 and 0.7989 log2.
On to ARAF, for which, in assay [1] (setting [10]), the “Difference (log2), PP1 vs untreated” value was -3.95 log2. In the assay with GFP-14-3-3β (setting [11]), the “Difference (log2), untreated vs GFP” value amounted to 3.851 log2.
For ARHGAP21, in that order: -2.341 log2 and 4.914 log2.
As to ARHGEF5, the “Difference (log2), PP1 vs untreated” value in assay [1] (setting [12]) is listed as -1.778 log2. In addition, the “Difference (log2), untreated vs GFP” value with GFP-14-3-3β (setting [13]) stood at 3.791 log2.
For the substance ASCC3, the “Difference (log2), PP1 vs untreated” value in assay [1] (setting [2]) stood at 0.6228 log2. Moreover, in the assay on GFP-14-3-3β (setting [3]), the “Difference (log2), untreated vs GFP” value is recorded as -0.1721 log2.
Turning to ATP5B, the “Difference (log2), PP1 vs untreated” value in assay [1] (log2 difference, pairwise comparison PP1 vs untreated, label-free quantification, 3 replicates each) was 1.371. In addition, the “Difference (log2), untreated vs GFP” value with GFP-14-3-3β (log2 difference, pairwise comparison untreated vs GFP, label-free quantification, 3 replicates each) is given as -0.3021.
BCLAF1: the “Difference (log2), PP1 vs untreated” value in assay [1] (setting [12]) was -1.628 log2. Besides, the “Difference (log2), untreated vs GFP” value with GFP-14-3-3β (setting [13]) worked out at 1.7962 log2.
For BRAF, in that order: -1.253 log2 and 7.361 log2.
Regarding CAD, the “Difference (log2), PP1 vs untreated” value in assay [1] (setting [6]) was -0.6324 log2. Moreover, the “Difference (log2), untreated vs GFP” value with GFP-14-3-3β (setting [7]) is 0.93 log2.
For CCT3, the “Difference (log2), PP1 vs untreated” value in assay [1] (setting [4]) was 0.8223 log2. In the assay on GFP-14-3-3β (setting [5]), the “Difference (log2), untreated vs GFP” value came out at 0.2505 log2.
On to CD44, for which the “Difference (log2), PP1 vs untreated” value in assay [1] (setting [10]) was -2.392 log2. In the assay with GFP-14-3-3β (setting [11]), the “Difference (log2), untreated vs GFP” value was determined as 0.8931 log2.
Take CD109: in assay [1] (setting [2]), the “Difference (log2), PP1 vs untreated” value is given as 0.7153 log2. For the same substance, in the assay with GFP-14-3-3β (setting [3]), the “Difference (log2), untreated vs GFP” value is recorded as -1.476 log2.
Regarding CEP170, the “Difference (log2), PP1 vs untreated” value in assay [1] (setting [2]) was found to be 0.4617 log2. Further, in the assay on GFP-14-3-3β (setting [3]), the “Difference (log2), untreated vs GFP” value was determined as 2.101 log2.
Take CFL1: the “Difference (log2), PP1 vs untreated” value in assay [1] (setting [2]) turned out to be 0.4849 log2. Further, the “Difference (log2), untreated vs GFP” value with GFP-14-3-3β (setting [3]) was -1.088 log2.
Consider CHD4, for which, in assay [1] (setting [6]), the “Difference (log2), PP1 vs untreated” value was -0.3658 log2. Moreover, in the assay on GFP-14-3-3β (setting [7]), the “Difference (log2), untreated vs GFP” value came out at 2.168 log2.
Taken in the same sequence, the figures for CKAP5 were -0.2118 log2 and -0.6501 log2.
For CLASP1, in that order: -0.7054 log2 and 1.4296 log2.
Take CLPX: the “Difference (log2), PP1 vs untreated” value in assay [1] (setting [4]) was 1.1943 log2. The “Difference (log2), untreated vs GFP” value in the assay on GFP-14-3-3β (setting [5]) is 0.9407 log2.
In the case of CLTC, in assay [1] (setting [6]), the “Difference (log2), PP1 vs untreated” value is recorded as -0.2648 log2. For the same substance, the “Difference (log2), untreated vs GFP” value in the assay on GFP-14-3-3β (setting [7]) amounted to 0.0549 log2.
In the case of CORO1C, the “Difference (log2), PP1 vs untreated” value in assay [1] (setting [2]) was determined as 0.3782 log2. Moreover, in the assay on GFP-14-3-3β (setting [3]), the “Difference (log2), untreated vs GFP” value is -0.8872 log2.
Consider CSE1L, for which the “Difference (log2), PP1 vs untreated” value in assay [1] (setting [8]) is 0.2293 log2. Moreover, in the assay with GFP-14-3-3β (setting [9]), the “Difference (log2), untreated vs GFP” value was -0.7283 log2.
As to DDX6, in assay [1] (setting [6]), the “Difference (log2), PP1 vs untreated” value is on record as -0.3213 log2. For the same substance, the “Difference (log2), untreated vs GFP” value with GFP-14-3-3β (setting [7]) amounted to 1.378 log2.
